{"source": "patent US8394397B2", "about": "“Adhesive antineoplastic compositions” (Ed. Geistlich Soehne AG fuer Chemische Industrie, priority 2003, dated 2013)", "key": {"[1]": {"assay": "Taurolidine release from fibrin sealant matrix into PBS supernatant over 7 days", "format": "physicochemical", "conditions": "irrespective of initial taurolidine concentration, 37° C.", "method": "Different concentrations of taurolidine were homogenously suspended in the two components of the fibrin sealant. The two components were then mixed in wells of a 24-multiwell plate to prepare matrixes with identical total volumes of 400 μl per well containing final taurolidine concentrations of 10, 20, 40 and 80 mg/ml. The resulting thickness of the matrix was 2 mm ±0.4 mm. In addition, matrices with volumes of 400 μl and 800 μl containing 10 mg/ml or 40 mg/ml of taurolidine were prepared to investigate the effect of matrix size on taurolidine release. […] Matrices of identical volume and thickness without taurolidine served as controls. Supernatants of 400 μl phosphate-buffered saline (PBS) were added to each well after solidification. The multiwell plates were incubated at 37° C. The supernatants were pipetted off at 24-hour intervals over a period of 7 days and replaced by identical amounts of fresh PBS."}, "[2]": {"assay": "Long-term release kinetics of taurolidine from fibrin sealant matrix over 14 days", "format": "physicochemical", "conditions": "for percentage of taurolidine released from the matrix: irrespective of loading concentrations", "method": "The long-term release kinetics of taurolidine was investigated by homogenously suspending different concentrations of taurolidine in the two components of the fibrin sealant in such a way that final concentrations (mg/ml) of 10, 40 and 80 mg/ml were achieved per 400 μl of fresh PBS at 24-hour intervals over a period of 14 days. The supernatants from the wells containing identical taurolidine concentrations were pooled. The taurolidine concentrations in the supernatants were determined."}, "[3]": {"tested_on": "glial tumor cell lines LN18, LN229, U87MG, and ex vivo cells from a freshly isolated glioblastoma", "assay": "Crystal violet assay of tumor cells incubated with taurolidine released from the matrices", "format": "cell-based", "method": "To determine whether the antineoplastic activity of taurolidine was affected by embedding in the matrix, the glial tumor cell lines LN18, LN229, U87MG, and ex vivo cells from a freshly isolated glioblastoma were incubated with taurolidine released from the matrices at different periods.\nThe LN18, LN229, and U87MG tumor cells and ex vivo cells from a glioblastoma were seeded in […] plastic cell culture flasks until a cell confluency of 80% was reached. The resulting cell suspensions were centrifuged at 1200 rpm for 5 min and then diluted to yield cell suspensions containing 5×10^4 cells per ml. Aliquots of 200 μl of the cell suspensions were pipetted into the wells of a 96-multiwell plate.\nAfter 12 hours when the cells were adherent the medium was removed and replaced by fresh medium. The cells were incubated for 24 hours and the taurolidine solution released at different time intervals from the matrices loaded with different taurolidine concentrations. Tumor cells incubated with the same volume of supernatant from fibrin sealant matrix without taurolidine were used as negative controls. Identically treated cells to which Fas-ligand at a concentration of 25% was added served as positive controls.\nAfter incubation for 24 hours, the supernatants were removed and 100 μl of crystal violet staining solution (0.5% crystal violet in 19.5% methanol and 80% distilled water) added. The solution was removed after 10 min and residual dye rinsed off with tap water. The plates were then left to air-dry for 12 hours followed by counting in a microplate counter at 540 nm."}, "[4]": {"conditions": "cited from earlier work"}}, "data": [{"smiles": "O=S1(=O)CCN(CN2CCS(=O)(=O)NC2)CN1", "note": "[Taurolidine, Bis-(1,1-dioxoperhydro-1,2,4-thiadiazinyl-4)methane]", "values": [{"measurement": "percentage of total taurolidine released from the matrix", "setting": "[1]; within 6 days", "result": "75.2±6.64", "unit": "%"}, {"measurement": "percentage of total taurolidine released from the matrix", "setting": "[1]; within the first 2 days", "result": "54.7±1.44", "unit": "%"}, {"measurement": "percentage of taurolidine released from the matrix", "setting": "[2]; after 10 days", "result": "98.93%±0.33"}, {"measurement": "percentage of taurolidine released from the matrix", "setting": "[2]; after 14 days", "result": "99.99%±0.02"}, {"measurement": "period over which antineoplastically effective amounts of taurolidine were released", "setting": "[2]; loading concentrations of 25 mg/ml or above", "result": 14, "unit": "days"}, {"measurement": "taurolidine released on day 14", "setting": "[2]; loading concentrations of 50 mg/ml or higher, day 14", "result": "over 100 μg/ml"}, {"measurement": "proliferation of tumor cell lines and ex vivo glioblastoma cells", "setting": "[3]; taurolidine released from matrices, 24 hours incubation", "result": "inhibited in an concentration-dependent manner"}, {"measurement": "reduction of cell counts", "setting": "[3]; taurolidine released on day 3, loading concentration 100 mg/ml", "result": "at least 60%"}, {"measurement": "effect on tumor cell proliferation", "setting": "[3]; taurolidine released on day 13 from TFM, initial loading concentration 10 mg/ml", "result": "no further effects on tumor cell proliferation"}, {"measurement": "water soluble up to", "setting": "[4]", "result": "up to 2%"}]}]}
